Test [1] has as its system PI3K isotype p110δ expression in HCC cells. The note with it: HCC cells after treatment with H2O2. On the procedure:
(§1) Medium was exchanged every day, and the aforementioned cells were cultured for 4 days in 300 μmol/L hydrogen peroxide (H2O2) (Sigma Aldrich; H1009). In several experiments, the cells were treated for 1 hour with 5 mmol/L N-acetylcysteine (NAC) (Sigma Aldrich; A7250), 25 μmol/L idelalisib (LC Laboratoties, Woburn, Mass., USA; I-7447), 25 μmol/L perifosine (LC Laboratoties, Woburn, Mass., USA; P-6522), or 30 μmol/L GSK3β inhibitor (GSK3β inhibitor XI) (Santa Cruz; sc-204770) (31) before adding H2O2. Furthermore, sterilized distilled water (pH 7.0) was used as a negative control (i.e., mock treatment).
PCR was carried out by using TOPrealm qPCR 2×PreMIX (SYBR Green with high ROX) (Enzynomics, Daejeon, Korea; RT501M) and ABI Prism 7300 thermal cycler (Applied Biosystems, Foster City, Calif., USA). […] To examine the primer specificity, a dissociation step was additionally included.

The test system of another test is Hep3B cells. The experiment in a line: Cell proliferation / cell viability, MTS assay. Type of test: cell-based. The note with it: Homo sapiens, treated for 96 hours. Here is the method: (§2) HCC cell lines (Huh7 and Hep3B) were obtained from Korean Cell Line Bank (KCLB, Seoul, Korea). THLE-3 cell line (immortalized human liver […] cell line produced by infection with SV40 large T antigen) was obtained from ATCC (American Type Culture Collection). Cell line authentication by KCLB and ATCC was carried out by using DNA fingerprinting as a short tandem repeat analysis. All cell lines were tested for mycoplasma contamination. HCC cells were cultured in DMEM (Welgene, Gyeongsan-si, Korea) medium complemented with 10% fetal bovine serum (GenDepot, Barker, Tex., USA) in a humidified 5% CO2 incubator at 37° C. As it has been recommended by the ATCC manual, THLE-3 cells were cultured in BEGM (Lonza) medium complemented with 10% fetal bovine serum in a humidified 5% CO2 incubator at 37° C.
(§3) As it has been described before (10), the cell viability was measured by using Cell Titer 96 MTS (Promega). Cells were sewn in an amount of 500 to 1000 cells per well, and then treated for 96 hours at a pharmaceutical concentration as described in each graph. Each analysis was repeated 3 times at least. After plotting the data, IC50 values were obtained by using GraphPad software. By using Flexstation 3 multimode plate reader (Molecular Devices), optical density showing formazan production was measured at 490 nm. […]

The next test has as its system Huh7 cells. The experiment in a line: Cell proliferation / cell viability, MTS assay. Type of test: cell-based. The note with it: Homo sapiens, Huh-7, treated for 96 hours. Here is the method:
as §2, §3
(Formazan colour is commonly taken as a measure of viable cells.)

Test [2] deals with AKT phosphorylation in HCC cell lines (Huh7 and Hep3B). The test is described as follows: AKT phosphorylation, immunoblot assay. Type of test: cell-based, human. Conditions: HCC cells. On the procedure: as §1
Total 2×10^5 cells were boiled for 5 minutes in 2×SDS sample buffer (100 mmol/L TrisHCl [pH 6.8], 4% SDS, 0.2% bromophenol blue, 20% glycerol, and 200 mmol/L β-mercaptoethanol), and then subjected to SDS-PAGE and Western blotting. To detect the TERT, the cells were cultured in 2×SDS sample buffer for 15 minutes at 55° C. TERT-specific (1:300, Rockland Immunochemicals, Gilbertsville, Pa., USA; 600-401-252), AKT-specific (1:1000, Cell Signaling Technology; #9272), phospho-AKT-specific (1:2000, Cell Signaling Technology; #4060), GAPDH-specific (1:2000, Santa Cruz Biotechnology; sc-47724), or β-actin-specific (1:2000, Sigma-Aldrich, St. Louis, Mo., USA; A5441) antibody was diluted in 5% skim milk or bovine serum albumin with TBS-Tween 20, cultured overnight at 4° C., washed, and cultured with HRP-conjugated secondary antibody (1:1000, Abcam; ab131368, or ab131366). By using FUSION-SOLO imager (Vilber Lourmat, Marne La Vallee, France), a chemical fluorescence image was obtained.
In general terms: In western blotting, separated proteins are transferred to a membrane and probed.

For the compound `OO` [H2O2, hydrogen peroxide], the “p110δ expression (only isotype among p110α, p110β, p110δ, p110γ)” value in test [1] was “increased”.
Usually IC50 stands for the midpoint of a concentration-inhibition curve. Turning to `CC[C@H](Nc1ncnc2nc[nH]c12)c1nc2cccc(F)c2c(=O)n1-c1ccccc1` [idelalisib, 5-fluoro-3-phenyl-2-[(1S)-1-(7H-purin-6-ylamino)propyl]-4(3H)-quinazolinone], the IC50 in the test with Hep3B cells and in the test on Huh7 cells was less than 30 µM in each case. The pAKT entry in test [2] is recorded as “inhibit”.

The values are drawn from patent publication US10463669B2, “Composition for treating or preventing liver cancer” (Seoul National University R&DB Foundation, priority 2016, dated 2019).
